The source of these data is ChEMBL document CHEMBL6087436, “The novel β-hairpin antimicrobial peptide D-G(RF)3 demonstrates exceptional antibacterial efficacy” (Eur J Med Chem, 2025).

Series [1] deals with Klebsiella pneumoniae. The series can be described thus: Bactericidal activity against Klebsiella pneumoniae ATCC 700603 assessed as bacterial eradication by measuring bacterial counts at 2 times MIC measured after 15 mins by Time killing assay relative to control. The series is classed as functional. The settings on record: 0.25 h.
The subject of series [2] is Cell membrane. The series is described as follows: Induction of cell membrane permeability in Staphylococcus aureus assessed as bacterial dissolution at 2 times MIC measured after 30 mins by SEM analysis. The series is classed as subcellular.
In series [3] the test system is Pseudomonas aeruginosa. The series can be described thus: Antibacterial activity against Pseudomonas aeruginosa ATCC 27853 in presence of 8 uM ZnCl2. It counts as functional, organism-based.
The test system of series [4] is Cell membrane. The series is described as follows: Induction of Cytoplasmic membrane depolarization in Escherichia coli at 1 to 4 times MIC measured for every 10 mins by DiSC3(5) dye based fluorescence method. The series is classed as subcellular.
In series [5] the test system is Staphylococcus aureus. The series can be described thus: Synergistic antibacterial activity against Staphylococcus aureus assessed as fractional inhibitory concentration index in presence of polymyxin B incubated for 18 hrs by checkerboard method. The series is classed as functional.
Series [6] deals with Pseudomonas aeruginosa. The series is described as follows: Synergistic antibacterial activity against Pseudomonas aeruginosa assessed as fractional inhibitory concentration index in presence of polymyxin B incubated for 18 hrs by checkerboard method. The series is classed as functional.
Series [7] can be described thus: Acute toxicity in male balb/c mouse assessed as mortality at 25 to 50 mg/kg, ip measured after 50 mins by karber method. It counts as organism-based. The conditions noted are these: in vivo, dose 25-50 mg/kg.
Series [8] relates to Pseudomonas aeruginosa. The series is described as follows: Antibacterial activity against Pseudomonas aeruginosa ATCC 27853 assessed as inhibition of bacterial growth incubated for 18 hrs by microbroth dilution assay. The series is classed as functional. (In broth dilution the organism is exposed to a series of concentrations in liquid medium.)
Series [9] concerns Cell membrane. The series is described as follows: Induction of cell membrane permeability in Staphylococcus aureus assessed as bacterial dissolution at 2 times MIC measured after 2 hrs by SEM analysis. It counts as subcellular.
The subject of series [10] is Cell membrane. The series is described as follows: Induction of Outer membrane permeabilization in Escherichia coli at 1 times MIC by NPN-dye based fluorescence analysis. It counts as subcellular.
A short description of series [11]: Acute toxicity in male balb/c mouse assessed as renal intracellular bleeding at 45.33 mg/kg, ip by H and E staining based analysis. The settings on record: in vivo. It counts as organism-based.
The subject of series [12] is Klebsiella pneumoniae. The series is described as follows: Bactericidal activity against Klebsiella pneumoniae ATCC 700603 assessed as bacterial eradication by measuring bacterial counts at 1 times MIC measured after 30 mins by Time killing assay relative to control. The settings on record: 0.5 h. The series is classed as functional.
In series [13] the test system is Cell membrane. The series is described as follows: Induction of cell membrane permeability in Staphylococcus aureus assessed as bacterial aggregation into clusters at 2 times MIC measured after 2 hrs by SEM analysis. The series is classed as subcellular.
Series [14] in a line: Acute toxicity in male balb/c mouse assessed as hepatocyte necrosis at 45.33 mg/kg, ip by H and E staining based analysis. It counts as organism-based. The conditions noted are these: in vivo.
Series [15] is described as follows: Hemolytic activity in Kunming mouse erythrocytes assessed as hemolysis incubated for 1 hr by multimode reader analysis. It counts as toxicity, cell-based. The settings on record: erythrocyte.
In series [16] the test system is Cell membrane. The series is described as follows: Induction of cell membrane permeability in Staphylococcus aureus assessed as bacterial aggregation at 2 times MIC measured after 30 mins by SEM analysis. It counts as subcellular.
For series [17], the system named is Escherichia coli. The series is described as follows: Synergistic antibacterial activity against Escherichia coli assessed as fractional inhibitory concentration index in presence of kanamycin incubated for 18 hrs by checkerboard method. It counts as functional.
Series [18] deals with Klebsiella pneumoniae. The series is described as follows: In vivo antibacterial activity against Klebsiella pneumoniae ATCC 700603 infected in male Balb/c mouse lung infection model assessed as reduction in alveoli expansion at 10 mg/kg, ip measured after 24 hrs by H and E staining based analysis. The series is classed as functional, organism-based.
Series [19] relates to Escherichia coli. The series is described as follows: Synergistic antibacterial activity against Escherichia coli assessed as fractional inhibitory concentration index in presence of polymyxin B incubated for 18 hrs by checkerboard method. It counts as functional.
Series [20] relates to Escherichia coli. The series can be described thus: Antimicrobial activity against Escherichia coli at 2 times MIC in presence of LPS preincubated for 1 hr followed by bacterial addition and measured after 6 hrs by LPS competitive inhibition assay. The series is classed as functional, organism-based.
Series [21] concerns Pseudomonas aeruginosa. The series can be described thus: Antibacterial activity against Pseudomonas aeruginosa ATCC 27853 in presence of 2 mM CaCl2. The series is classed as functional, organism-based.
For series [22], the system named is Cell membrane. The series is described as follows: Induction of cell membrane permeability in Staphylococcus aureus assessed as bacterial collapse at 2 times MIC by SEM analysis. It counts as subcellular.
The subject of series [23] is Cell membrane. The series is described as follows: Induction of Inner membrane permeabilization in Escherichia coli ML-35 ATCC […] at 4 times MIC measured every 5 mins for 120 mins by ONPG dye based assay. The series is classed as subcellular.
Series [24] relates to Cell membrane. The series is described as follows: Induction of Cytoplasmic membrane depolarization in Staphylococcus aureus at 4 times MIC measured for every 10 mins by DiSC3(5) dye based fluorescence method. The series is classed as subcellular.
The subject of series [25] is Escherichia coli. The series is described as follows: Inhibition of biofilm formation in Escherichia coli ATCC 25922 at 1 uM incubated for 24 hrs by crystal violet staining based analysis. It counts as functional, organism-based.
In series [26] the test system is Staphylococcus aureus. The series can be described thus: Synergistic antibacterial activity against Staphylococcus aureus assessed as fractional inhibitory concentration index in presence of ciprofloxacin incubated for 18 hrs by checkerboard method. The series is classed as functional.
For series [27], the system named is Cell membrane. The series is described as follows: Induction of cell membrane permeability in Staphylococcus aureus assessed as bacterial aggregation into breakage at 2 times MIC measured after 2 hrs by SEM analysis. It counts as subcellular.
The subject of series [28] is Cell membrane. The series is described as follows: Induction of cell membrane permeability in Staphylococcus aureus assessed as bacterial adhesion at 2 times MIC by SEM analysis. It counts as subcellular.
Series [29] deals with Cell membrane. The series is described as follows: Induction of cell membrane permeability in Staphylococcus aureus assessed as bacterial aggregation into clusters at 2 times MIC measured after 30 mins by SEM analysis. The series is classed as subcellular.
Series [30] concerns Cell membrane. The series can be described thus: Induction of cell membrane permeability in Staphylococcus aureus assessed as bacterial aggregation into breakage at 2 times MIC measured after 30 mins by SEM analysis. The series is classed as subcellular.
Series [31] deals with Cell membrane. The series is described as follows: Induction of Inner membrane permeabilization in Escherichia coli ML-35 ATCC […] at 2 times MIC measured every 5 mins for 120 mins by ONPG dye based assay. The series is classed as subcellular.
Series [32] deals with Escherichia coli. The series is described as follows: Antimicrobial activity against Escherichia coli at 2 times MIC in presence of LPS at 64 uM preincubated for 1 hr followed by bacterial addition and measured after 6 hrs by LPS competitive inhibition assay. The settings on record: time 7.0 hrs. The series is classed as functional, organism-based.
Series [33] deals with Cell membrane. The series can be described thus: Induction of cell membrane permeability in Staphylococcus aureus assessed as agglutination with leaked contents at 2 times MIC measured after 2 hrs by SEM analysis. The series is classed as subcellular.
The subject of series [34] is Staphylococcus aureus. The series can be described thus: Additive antibacterial activity against Staphylococcus aureus assessed as fractional inhibitory concentration index in presence of ciprofloxacin incubated for 18 hrs by checkerboard method. The series is classed as functional.
A short description of series [35]: Acute toxicity in male balb/c mouse assessed as renal necrosis at 81.28 mg/kg, ip by H and E staining based analysis. It counts as organism-based. The conditions noted are these: in vivo.
A short description of series [36]: Acute toxicity in male balb/c mouse assessed as mortality at 63.2 to 100 mg/kg, ip measured after 7 days by karber method. It counts as organism-based. The settings on record: in vivo, 168 h, dose 63.2-100 mg/kg, time 7 day.
The nature of series [37]: Acute toxicity in male balb/c mouse assessed as hepatocyte necrosis at 81.28 mg/kg, ip by H and E staining based analysis. The series is classed as organism-based. The conditions noted are these: in vivo.
Series [38] concerns Cell membrane. The series is described as follows: Induction of cell membrane permeability in Staphylococcus aureus assessed as rupture of bacteria with leaked contents at 2 times MIC measured after 30 mins by SEM analysis. It counts as subcellular.
Series [39] relates to Klebsiella pneumoniae. The series can be described thus: Bactericidal activity against Klebsiella pneumoniae ATCC 700603 assessed as bacterial eradication by measuring bacterial counts at 2 times MIC measured after 30 mins by Time killing assay relative to control. The series is classed as functional. The settings on record: 0.5 h.
Series [40] concerns Escherichia coli. The series can be described thus: Additive antibacterial activity against Escherichia coli assessed as fractional inhibitory concentration index in presence of kanamycin incubated for 18 hrs by checkerboard method. The series is classed as functional.
Series [41] concerns Staphylococcus aureus. The series is described as follows: Additive antibacterial activity against Staphylococcus aureus assessed as fractional inhibitory concentration index in presence of polymyxin B incubated for 18 hrs by checkerboard method. It counts as functional.

Values after ≈ are worked out from the molar mass of the structure shown. Active and inactive are the calls of the source.

Consider `N=C(N)NCCC[C@@H](NC(=O)CNC(=O)[C@H]1CCCN1C(=O)[C@@H](CCCNC(=N)N)NC(=O)[C@@H](Cc1ccccc1)NC(=O)[C@@H](CCCNC(=N)N)NC(=O)[C@@H](Cc1ccccc1)NC(=O)[C@@H](CCCNC(=N)N)NC(=O)[C@H](N)Cc1ccccc1)C(=O)N[C@H](Cc1ccccc1)C(=O)N[C@H](CCCNC(=N)N)C(=O)N[C@H](Cc1ccccc1)C(=O)N[C@H](CCCNC(=N)N)C(=O)N[C@H](Cc1ccccc1)C(N)=O`, for which the Activity was 100% in the series on Klebsiella pneumoniae [1]; “Toxic” in series [7]; “Active; Comparable Permeability To Polymyxin B Was Observed” with Cell membrane [10]; “Toxic” in series [11]; 100% in the series with Klebsiella pneumoniae [12]; “Toxic” in [14]. Besides, the Activity entry in the series on Cell membrane [24] was “Active; Comparable Depolarization To Valinomycin Was Observed”. Moreover, the outcome with Cell membrane [2], in the series on Pseudomonas aeruginosa [3], in the series on Cell membrane [4], in the series with Cell membrane [9], with Cell membrane [13] and with Cell membrane [16] was Active. The outcome in the series on Klebsiella pneumoniae [18], in the series with Pseudomonas aeruginosa [21], with Cell membrane [22], in the series on Cell membrane [23], in the series on Cell membrane [27] and with Cell membrane [28] was Active. Moreover, the outcome with Cell membrane [29] and in the series with Cell membrane [30] was Active. Besides, the “fractional inhibitory concentration index (FICI)” value is given as 0.375 with Staphylococcus aureus [5]; 0.313 in the series on Pseudomonas aeruginosa [6]; 0.313 with Escherichia coli [17]; 0.188 with Escherichia coli [19]; 0.313 in the series with Staphylococcus aureus [26]. Further, the minimal inhibitory concentration (MIC) – broadly, the smallest concentration in the dilution series that meets the test's criterion for growth inhibition – in the series on Pseudomonas aeruginosa [8] was determined as 4 µM (≈ 7.97 µg/mL). Also, the MHC10 in [15] is above 256 µM. In addition, the outcome in the series on Escherichia coli [20] was inactive. For the same compound, the inhibition entry with Escherichia coli [25] is “Active”.
With `N=C(N)NCCC[C@H](NC(=O)CNC(=O)[C@H]1CCCN1C(=O)[C@H](CCCNC(=N)N)NC(=O)[C@H](Cc1ccccc1)NC(=O)[C@H](CCCNC(=N)N)NC(=O)[C@H](Cc1ccccc1)NC(=O)[C@H](CCCNC(=N)N)NC(=O)[C@@H](N)Cc1ccccc1)C(=O)N[C@@H](Cc1ccccc1)C(=O)N[C@@H](CCCNC(=N)N)C(=O)N[C@@H](Cc1ccccc1)C(=O)N[C@@H](CCCNC(=N)N)C(=O)N[C@@H](Cc1ccccc1)C(N)=O`, the result in the series on Cell membrane [31], with Pseudomonas aeruginosa [3], in the series with Cell membrane [33], in the series with Klebsiella pneumoniae [18], with Pseudomonas aeruginosa [21] and with Cell membrane [38] was Active. Also, the result with Escherichia coli [32] was inactive. For the same compound, the MIC in the series with Pseudomonas aeruginosa [8] amounted to 4 µM (≈ 7.97 µg/mL). Moreover, the “fractional inhibitory concentration index (FICI)” value in the series with Staphylococcus aureus [34] amounted to 0.563; in the series on Escherichia coli [19] it was 0.25; in the series with Escherichia coli [40] it was 0.563; in the series on Staphylococcus aureus [41] it was 0.625. In addition, the MHC10 in series [15] was found to be 512 µM. The Activity result in [35] is on record as “Toxic”; in series [36], “Toxic”; in [37], “Toxic”; with Klebsiella pneumoniae [39] it was 100%.
